Data as given in patent US12318369B2, “Analgesic and antipruritic pharmacertical composition and application thereof” (KEVICI (SHANGHAI) PHARMACEUTICAL CO., LTD., priority 2020, dated 2025).
“Also recorded” adds a separate entry of the source.

Tests used:
[1] = Side effects observed in SNI mice after intraperitoneal injection
[2] = test system: SNI-induced neuropathic pain C57/BJ6 mice; test: SNI-induced neuropathic pain mouse model, mechanical pain threshold (PWT) by Von Frey; type: in vivo
Description: C57/BJ6 mice aged 5-6 weeks were purchased from Shanghai SLAC Laboratory Animal Co., Ltd and fed for 6 months. After that, the mice were placed in a transparent plexiglass chamber on an iron support. 30 minutes later, the baseline mechanical threshold (paw withdrawal threshold, PWT) of the mice was detected by Von Frey (DanMicGlobal, CA, USA). The average threshold of the mice was 1.54+0.07 g (see FIG. 1). The spared nerve injury (SNI)-induced neuropathic pain C57/BJ6 mouse model was established according to Pertin, M et al (Pertin, M., Gosselin, RD., Decosterd, I. (2012). The Spared Nerve Injury Model of Neuropathic Pain. In: Luo, Z. (eds) Pain Research. Methods in Molecular Biology, vol 851. Humana Press). The SNI-induced neuropathic pain mice were measured for the mechanical pain threshold using Von Frey respectively at 2 weeks, 4 weeks and 6 weeks post operation.
The mechanical pain threshold of mice was tested 1 hour after injection. […] Among them, the mice with poor response (ΔPWT≤ 0.2 g) accounted for 10% (2/20) of all tested mice.
20 μg/kg GNE-0439 and 90 μg/kg PF-04885614 were intraperitoneally injected into SNI mice at 6 weeks post operation. One hour later, the mechanical threshold of mice was measured using Von Frey.

[3] = test system: neuropathic pain patients; details: clinical use; cited from earlier work
[4] = test system: subjects with painful diabetic peripheral neuropathy; details: randomised, placebo-controlled, double-blind clinical study; cited from earlier work

COc1ccc(Cl)c(-c2ccc(NC(=O)c3ccnn3C)nc2N)c1 [PF-04531083]
side effects ([1]; 10 mg/kg PF-04531083 (effective dose)): obvious side effects such as sedation and weight loss; also recorded: significant side effects such as sedation and weight loss

NCC1(CC(=O)O)CCCCC1 [Gabapentin]
effect on mechanical pain of SNI mice ([2]; 100 mg/kg i.p., 6 weeks post operation): relieve effect
side effects ([1]; 100 mg/kg Gabapentin): sedative side effects
accompanying side effects in patients [3]: sedation effects (such as drowsiness, fatigue and dizziness)

Nc1n[nH]cc1-c1cc(Cl)ccc1Oc1cc(F)c(S(=O)(=O)Nc2cscn2)cc1Cl [PF-05089771]
efficacy in treatment of diabetic neuropathic pain [4]: poor efficacy
mice with poor response (ΔPWT≤0.2 g) ([2]; 2 mg/kg i.p., 2 weeks post operation (2/20)): 10%
mice with poor response (ΔPWT≤0.2 g) ([2]; 2 mg/kg i.p., 4 weeks post operation (10/24)): 41.7%
mice with poor response (ΔPWT≤0.2 g) ([2]; 2 mg/kg i.p., 6 weeks post operation (16/28)): 57.1%
increase of mechanical pain threshold (ΔPWT) ([2]; 2 mg/kg i.p., SNI mice 2 weeks post operation, 1 hour after injection): 0.77 ± 0.10 g
increase of mechanical pain threshold (ΔPWT) ([2]; 2 mg/kg i.p., SNI mice 4 weeks post operation, 1 hour after injection): 0.39 ± 0.07 g
increase of mechanical pain threshold (ΔPWT) ([2]; 2 mg/kg i.p., SNI mice 6 weeks post operation, 1 hour after injection): 0.17 ± 0.03 g
fraction of total mice that poorly responded (ΔPWT≤0.2 g) ([2]; 2 mg/kg, 6 weeks post SNI operation (8/12, Table 1)): 2/3

CC(C)C[C@H](CN)CC(=O)O [Pregabalin]
accompanying side effects in patients [3]: sedation effects (such as drowsiness, fatigue and dizziness)

CC(C)(N)c1ncc(-c2ccc(OC(F)(F)F)cc2)[nH]1 [PF-04885614]
mice with poor response (ΔPWT≤0.2 g) ([2]; 45 μg/kg i.p., 2 weeks post operation (2/18)): 11.1%
threshold increase compared with the control group ([2]; 45 μg/kg i.p., 4 weeks post operation): no statistically significant difference
mice with poor response (ΔPWT≤0.2 g) ([2]; 45 μg/kg i.p., 4 weeks post operation (10/19)): 52.6%
mice with poor response (ΔPWT≤0.2 g) ([2]; 45 μg/kg i.p., 6 weeks post operation (13/17)): 76.5%
increase of mechanical pain threshold (ΔPWT) ([2]; 45 μg/kg i.p., SNI mice 2 weeks post operation): 0.86 ± 0.14 g
increase of mechanical pain threshold (ΔPWT) ([2]; 45 μg/kg i.p., SNI mice 4 weeks post operation): 0.21 ± 0.04 g
increase of mechanical pain threshold (ΔPWT) ([2]; 45 μg/kg i.p., SNI mice 6 weeks post operation): 0.10 ± 0.04 g
fraction of PF-05089771 poor responders that well responded ([2]; 90 μg/kg PF-04885614, 6 weeks post SNI operation): half

CCCC1CCC(c2ccc(C(=O)N[C@H](C(=O)O)C(C)C)cc2)CC1 (stereo partly shown) [GNE-0439]
ΔPWT ([2]; single administration, 20 μg/kg i.p., SNI mice 6 weeks post operation, one hour after injection): 0.77 ± 0.14 g
